In one series the target is CYP2C19 (Homo sapiens (Human), UniProt P33261). Nature of the series: CYP enzyme inhibition, fluorescent substrate (CEC). The following applies: read-out: Cyp IC50 2C19; CYP2C19, substrate CEC. In outline: (§1)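 First, 100 mM DMSO stocks are diluted into acetonitrile, then twofold through co-factor mix for 10 points. Next, mixtures are preincubated 10 min at 37 °C.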
The target of the next series is CYP3A4(BQ) (Homo sapiens (Human), UniProt P08684). Put plainly: CYP enzyme inhibition, fluorescent substrate BQ. To be noted: read-out: Cyp IC50 3A4(BQ); CYP3A4, substrate BQ. The method, then: CYP (Cytochrome P450) enzymes are the major drug metabolizing enzymes present in the liver. The inhibition of CYP enzyme activity (IC50) for each of CYP1A2, CYP2C19, CYP2C9, CYP2D6, CYP3A4(BFC) and CYP3A4(BQ) is determined for compounds, where inhibition of metabolism of a known substrate leads to a decrease in the fluorescence of the metabolized product. The fluorescence of the product is monitored as a function of compound concentration.
Sequence of CYP3A4(BQ) (P08684 whole entry): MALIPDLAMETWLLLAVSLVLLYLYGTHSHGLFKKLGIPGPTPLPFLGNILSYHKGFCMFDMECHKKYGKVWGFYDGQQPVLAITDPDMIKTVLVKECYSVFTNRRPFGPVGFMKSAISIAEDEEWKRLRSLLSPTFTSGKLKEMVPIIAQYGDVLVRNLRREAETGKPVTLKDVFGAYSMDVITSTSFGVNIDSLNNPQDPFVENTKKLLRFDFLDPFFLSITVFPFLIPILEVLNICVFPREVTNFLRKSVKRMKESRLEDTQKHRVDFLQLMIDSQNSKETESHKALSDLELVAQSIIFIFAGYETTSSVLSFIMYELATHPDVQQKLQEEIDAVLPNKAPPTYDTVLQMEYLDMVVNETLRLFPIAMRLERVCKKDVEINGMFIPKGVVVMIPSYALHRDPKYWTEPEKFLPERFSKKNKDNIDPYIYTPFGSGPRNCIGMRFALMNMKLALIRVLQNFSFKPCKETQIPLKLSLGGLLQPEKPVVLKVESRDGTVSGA
Compounds are dissolved in dimethyl sulfoxide to a concentration of 100 mM. These are diluted 1 μL into 82 μL of acetonitrile. […] These are then serially diluted 1:1 (160 μL to 160 μL co-factor mix) for a total of 10 points. A 10 μL aliquot of this final mixture is dispensed into 384 well assay plates and incubated for 10 minutes at 37° C. […] Assay plates are incubated at 37° C. […] The signal versus compound concentration is used to determine the IC50. The enzymes and substrates for this assay are obtained from BD Biosciences.

The next series concerns the target CYP3A4(BFC) (Homo sapiens (Human), UniProt P08684). Nature of the series: CYP enzyme inhibition, fluorescent substrate BFC. To be noted: read-out: Cyp IC50 3A4(BFC); CYP3A4, substrate BFC. In outline:
as §1

For another series, the target named is CYP2D6 (Homo sapiens (Human), UniProt P10635). Nature of the series: CYP enzyme inhibition, fluorescent substrate (AMMC). Type of series: in vitro ADME. To be noted: read-out: Cyp IC50 2D6. In outline: (§2)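 IC50 derived from loss of fluorescent metabolite across a 10-point 1:1 dilution series. CYP2D6: 1.5 pmol enzyme, 1.5 μM AMMC, 30 min at 37 °C, 409/530 nm; CYP1A2: 0.5 pmol, 5 μM CEC, 15 min, 409/460 nm. Compounds pre-incubated 10 min in NADPH-regenerating mix.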
Sequence of CYP2D6 (P10635 whole entry): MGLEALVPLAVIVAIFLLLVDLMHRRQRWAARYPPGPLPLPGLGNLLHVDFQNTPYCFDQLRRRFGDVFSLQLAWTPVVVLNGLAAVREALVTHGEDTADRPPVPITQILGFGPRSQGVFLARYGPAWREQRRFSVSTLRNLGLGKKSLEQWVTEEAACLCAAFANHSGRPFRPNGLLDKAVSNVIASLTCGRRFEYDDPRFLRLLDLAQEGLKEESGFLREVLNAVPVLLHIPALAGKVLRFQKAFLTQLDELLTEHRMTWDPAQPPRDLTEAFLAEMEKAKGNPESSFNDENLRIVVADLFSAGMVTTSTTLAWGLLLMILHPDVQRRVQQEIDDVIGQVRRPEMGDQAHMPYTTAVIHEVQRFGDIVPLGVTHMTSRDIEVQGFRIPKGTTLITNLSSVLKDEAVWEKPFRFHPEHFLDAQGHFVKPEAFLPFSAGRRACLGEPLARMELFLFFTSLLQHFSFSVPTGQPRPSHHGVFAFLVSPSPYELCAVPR

Series [1] in a line: Relative solubility by turbidity threshold concentration in aqueous buffers (pH 1.5, 4.5, 6.8, 7.4). Type of series: physicochemical. To be noted: for turbidity threshold (L, M, H) 1.4: pH 1.4 [sic] (method: SGF pH 1.5); for turbidity threshold (L, M, H) 4.5: pH 4.5 (SIF); for turbidity threshold (L, M, H) 6.8: pH 6.8 (SIF); for turbidity threshold (L, M, H) 7.4: pH 7.4 (HEPES). In outline:
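Solubility class (high >250 μM, moderate 31.3–250 μM, low <31.3 μM) comes from the concentration where absorbance reaches a 0.01 threshold, averaged across 490/535/650 nm. Samples were compound dilutions from DMSO stock, 1 μL into 99 μL buffer at pH 1.5, 4.5, 6.8 or 7.4.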

The target of another series is CYP2C9 (Homo sapiens (Human), UniProt P11712). Nature of the series: CYP enzyme inhibition, fluorescent substrate (MFC). To be noted: read-out: Cyp IC50 2C9; CYP2C9, substrate MFC. The essentials: as §1
Sequence of CYP2C9 (P11712 whole entry): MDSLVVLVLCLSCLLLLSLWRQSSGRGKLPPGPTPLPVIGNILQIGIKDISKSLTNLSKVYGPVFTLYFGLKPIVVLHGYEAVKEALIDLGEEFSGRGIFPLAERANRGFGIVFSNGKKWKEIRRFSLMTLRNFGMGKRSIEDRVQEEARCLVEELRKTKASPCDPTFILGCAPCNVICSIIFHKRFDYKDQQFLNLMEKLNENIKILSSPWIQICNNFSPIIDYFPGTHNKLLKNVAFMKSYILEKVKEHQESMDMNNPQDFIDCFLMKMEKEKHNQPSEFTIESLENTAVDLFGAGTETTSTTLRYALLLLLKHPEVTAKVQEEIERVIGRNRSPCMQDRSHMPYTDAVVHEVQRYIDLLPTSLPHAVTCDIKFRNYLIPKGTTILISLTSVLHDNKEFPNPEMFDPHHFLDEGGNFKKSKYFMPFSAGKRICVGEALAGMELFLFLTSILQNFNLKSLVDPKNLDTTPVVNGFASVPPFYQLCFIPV
The target in another series is CYP1A2 (Homo sapiens (Human), UniProt P05177). Put plainly: CYP enzyme inhibition, fluorescent substrate (CEC). In outline: as §2
Sequence of CYP1A2 (P05177 whole entry): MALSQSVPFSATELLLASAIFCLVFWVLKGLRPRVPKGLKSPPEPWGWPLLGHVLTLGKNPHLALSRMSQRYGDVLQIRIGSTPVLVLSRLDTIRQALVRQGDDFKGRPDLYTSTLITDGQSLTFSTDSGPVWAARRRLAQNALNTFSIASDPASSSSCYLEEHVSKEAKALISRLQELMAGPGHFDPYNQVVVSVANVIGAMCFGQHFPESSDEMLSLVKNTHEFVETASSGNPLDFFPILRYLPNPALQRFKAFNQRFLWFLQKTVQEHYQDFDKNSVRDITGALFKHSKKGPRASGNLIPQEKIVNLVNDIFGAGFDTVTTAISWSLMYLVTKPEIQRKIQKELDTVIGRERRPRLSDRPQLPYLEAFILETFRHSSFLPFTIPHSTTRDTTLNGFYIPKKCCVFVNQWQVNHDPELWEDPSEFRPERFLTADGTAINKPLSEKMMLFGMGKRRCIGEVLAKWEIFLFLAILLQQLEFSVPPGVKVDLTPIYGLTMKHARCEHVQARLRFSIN
Where [2] appears, read: read-out: Cyp IC50 1A2, CYP1A2, substrate CEC.

Like-named read-outs stand apart in the source and are kept apart here.

Sequence of CYP3A4(BFC) (P08684 whole entry): as the sequence (P08684 whole entry) above
Sequence of CYP2C19 (P33261 whole entry): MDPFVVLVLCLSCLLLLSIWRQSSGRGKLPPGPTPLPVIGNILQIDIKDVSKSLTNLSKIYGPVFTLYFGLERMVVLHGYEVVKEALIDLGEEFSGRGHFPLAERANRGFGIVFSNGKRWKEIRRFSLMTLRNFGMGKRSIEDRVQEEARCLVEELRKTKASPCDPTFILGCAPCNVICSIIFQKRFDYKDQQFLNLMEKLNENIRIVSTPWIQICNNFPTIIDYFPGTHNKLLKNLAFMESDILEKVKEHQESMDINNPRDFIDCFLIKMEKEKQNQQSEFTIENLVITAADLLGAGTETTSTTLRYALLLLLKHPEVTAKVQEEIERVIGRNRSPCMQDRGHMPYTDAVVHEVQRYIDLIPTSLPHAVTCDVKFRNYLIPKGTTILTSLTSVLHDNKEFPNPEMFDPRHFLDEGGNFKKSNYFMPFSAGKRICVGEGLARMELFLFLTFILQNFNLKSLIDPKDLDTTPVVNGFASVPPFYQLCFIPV

Turning to `CCCS(=O)(=O)Nc1ccc(F)c(C(=O)c2c[nH]c3ncnc(Nc4cn(C)nc4C)c23)c1F` [P-1100, Propane-1-sulfonic acid {3-[4-(1,3-dimethyl-1H-pyrazol-4-ylamino)-7H-pyrrolo[2,3-d]pyrimidine-5-carbonyl]-2,4-difluoro-phenyl}-amide], the IC50 at CYP2C19, on CYP3A4(BQ), on CYP3A4(BFC), on CYP2D6, at CYP2C9 and on CYP1A2 (setting [2]) was greater than 10 µM each time. For the same molecule, the “turbidity threshold (L, M, H) 1.4” value in series [1] was “M (moderate solubility if the threshold concentration is 31.3 μM to 250 μM)”. Moreover, in series [1], the “turbidity threshold (L, M, H) 4.5” value is recorded as “M (moderate solubility if the threshold concentration is 31.3 μM to 250 μM)”. Moreover, the “turbidity threshold (L, M, H) 6.8” value in series [1] is given as “L (low solubility if the threshold concentration is <31.3 μM)”. Moreover, the “turbidity threshold (L, M, H) 7.4” value in series [1] is “L (low solubility if the threshold concentration is <31.3 μM)”.

Regarding `CCCS(=O)(=O)Nc1ccc(F)c(C(=O)c2c[nH]c3ncnc(Nc4ccccn4)c23)c1F` [P-1077, Propane-1-sulfonic acid {2,4-difluoro-3-[4-(pyridin-2-ylamino)-7H-pyrrolo[2,3-d]pyrimidine-5-carbonyl]-phenyl}-amide], the concentration for half-maximal inhibition (IC50) was greater than 10 µM on CYP2C19; greater than 10 µM at CYP3A4(BQ); greater than 10 µM on CYP3A4(BFC); greater than 10 µM at CYP2D6; greater than 10 µM at CYP2C9; greater than 10 µM at CYP1A2 (human, 15 min). The “turbidity threshold (L, M, H) 1.4” value in series [1] is on record as “H (high solubility if the threshold concentration is >250 μm)”. Moreover, the “turbidity threshold (L, M, H) 4.5” value in series [1] was “L (low solubility if the threshold concentration is <31.3 μM)”. In series [1], the “turbidity threshold (L, M, H) 6.8” value was “L (low solubility if the threshold concentration is <31.3 μM)”. In series [1], the “turbidity threshold (L, M, H) 7.4” value is listed as “L (low solubility if the threshold concentration is <31.3 μM)”.

In the case of `CCCS(=O)(=O)Nc1ccc(F)c(C(=O)c2c[nH]c3ncnc(NCC4CC4)c23)c1F` [P-1079, Propane-1-sulfonic acid {3-[4-(cyclopropylmethyl-amino)-7H-pyrrolo[2,3-d]pyrimidine-5-carbonyl]-2,4-difluoro-phenyl}-amide], the 50% inhibitory concentration (IC50) on CYP2C19 is greater than 10 µM; at CYP3A4(BQ), greater than 10 µM; at CYP3A4(BFC), greater than 10 µM; at CYP2D6 it was greater than 10 µM; at CYP2C9, greater than 10 µM; against CYP1A2 (human, 15 min), greater than 10 µM. For the same molecule, the “turbidity threshold (L, M, H) 1.4” value in series [1] is given as “M (moderate solubility if the threshold concentration is 31.3 μM to 250 μM)”. Further, in series [1], the “turbidity threshold (L, M, H) 4.5” value is “L (low solubility if the threshold concentration is <31.3 μM)”. Also, the “turbidity threshold (L, M, H) 6.8” value in series [1] is recorded as “L (low solubility if the threshold concentration is <31.3 μM)”. For the same molecule, the “turbidity threshold (L, M, H) 7.4” value in series [1] was “L (low solubility if the threshold concentration is <31.3 μM)”.

`O=C(c1c(F)ccc(NS(=O)(=O)c2ccccc2F)c1F)c1c[nH]c2ncnc(NC3CC3)c12` [P-1103, N-[3-(4-Cyclopropylamino-7H-pyrrolo[2,3-d]pyrimidine-5-carbonyl)-2,4-difluoro-phenyl]-2-fluoro-benzenesulfonamide]: the IC50 on CYP2C19 was greater than 10 µM; at CYP3A4(BQ), greater than 10 µM; at CYP3A4(BFC) it was greater than 10 µM; on CYP2D6, greater than 10 µM; on CYP2C9, greater than 10 µM; at CYP1A2 (human, 15 min), greater than 10 µM. Further, the “turbidity threshold (L, M, H) 1.4” value in series [1] is on record as “M (moderate solubility if the threshold concentration is 31.3 μM to 250 μM)”. In addition, in series [1], the “turbidity threshold (L, M, H) 4.5” value is recorded as “L (low solubility if the threshold concentration is <31.3 μM)”. For the same molecule, the “turbidity threshold (L, M, H) 6.8” value in series [1] is “L (low solubility if the threshold concentration is <31.3 μM)”. Further, the “turbidity threshold (L, M, H) 7.4” value in series [1] is “M (moderate solubility if the threshold concentration is 31.3 μM to 250 μM)”.

Turning to `O=C(c1c(F)ccc(NS(=O)(=O)c2cc(F)ccc2F)c1F)c1c[nH]c2ncnc(C3CC3)c12` [P-1107, N-[3-(4-Cyclopropyl-7H-pyrrolo[2,3-d]pyrimidine-5-carbonyl)-2,4-difluoro-phenyl]-2,5-difluoro-benzenesulfonamide], the IC50 is greater than 10 µM at CYP2C19; greater than 10 µM on CYP3A4(BQ); greater than 10 µM at CYP3A4(BFC); greater than 10 µM at CYP2D6; greater than 10 µM at CYP2C9; 5 to 10 µM at CYP1A2. The “turbidity threshold (L, M, H) 1.4” value in series [1] was “M (moderate solubility if the threshold concentration is 31.3 μM to 250 μM)”. The “turbidity threshold (L, M, H) 4.5” value in series [1] was “L (low solubility if the threshold concentration is <31.3 μM)”. Also, in series [1], the “turbidity threshold (L, M, H) 6.8” value is recorded as “M (moderate solubility if the threshold concentration is 31.3 μM to 250 μM)”. Further, the “turbidity threshold (L, M, H) 7.4” value in series [1] is on record as “M (moderate solubility if the threshold concentration is 31.3 μM to 250 μM)”.

For `Cc1nn(C)cc1Nc1ncnc2[nH]cc(C(=O)c3c(F)ccc(NS(=O)(=O)c4ccccc4F)c3F)c12` [P-1154, N-{3-[4-(1,3-Dimethyl-1H-pyrazol-4-ylamino)-7H-pyrrolo[2,3-d]pyrimidine-5-carbonyl]-2,4-difluoro-phenyl}-2-fluoro-benzenesulfonamide], the IC50 was greater than 10 µM at CYP2C19; greater than 10 µM on CYP3A4(BQ); greater than 10 µM at CYP3A4(BFC); greater than 10 µM at CYP2D6; greater than 10 µM on CYP2C9; greater than 10 µM against CYP1A2 (human, 15 min). Further, the “turbidity threshold (L, M, H) 1.4” value in series [1] was “L (low solubility if the threshold concentration is <31.3 μM)”. Further, the “turbidity threshold (L, M, H) 4.5” value in series [1] was “L (low solubility if the threshold concentration is <31.3 μM)”. Also, in series [1], the “turbidity threshold (L, M, H) 6.8” value is “L (low solubility if the threshold concentration is <31.3 μM)”. Also, in series [1], the “turbidity threshold (L, M, H) 7.4” value is “L (low solubility if the threshold concentration is <31.3 μM)”.

As for `CC(C)Nc1ncnc2[nH]cc(C(=O)c3c(F)ccc(NS(=O)(=O)c4ccccc4F)c3F)c12` [P-1073, N-[2,4-Difluoro-3-(4-isopropylamino-7H-pyrrolo[2,3-d]pyrimidine-5-carbonyl)-phenyl]-2-fluoro-benzenesulfonamide], the IC50 on CYP2C19, at CYP3A4(BQ), at CYP3A4(BFC), at CYP2D6, on CYP2C9 and on CYP1A2 (setting [2]) was greater than 10 µM each time. The “turbidity threshold (L, M, H) 1.4” value in series [1] was “M (moderate solubility if the threshold concentration is 31.3 μM to 250 μM)”. In addition, the “turbidity threshold (L, M, H) 4.5” value in series [1] was “L (low solubility if the threshold concentration is <31.3 μM)”. Besides, the “turbidity threshold (L, M, H) 6.8” value in series [1] is listed as “L (low solubility if the threshold concentration is <31.3 μM)”. The “turbidity threshold (L, M, H) 7.4” value in series [1] was “L (low solubility if the threshold concentration is <31.3 μM)”.

Regarding `CCCS(=O)(=O)Nc1ccc(F)c(C(=O)c2c[nH]c3ncnc(NCc4ccccc4)c23)c1F` [P-1074, Propane-1-sulfonic acid [3-(4-benzylamino-7H-pyrrolo[2,3-d]pyrimidine-5-carbonyl)-2,4-difluoro-phenyl]-amide], the half-inhibitory concentration (IC50) was greater than 10 µM at CYP2C19; greater than 10 µM on CYP3A4(BQ); greater than 10 µM on CYP3A4(BFC); greater than 10 µM at CYP2D6; greater than 10 µM at CYP2C9; greater than 10 µM on CYP1A2 (human, 15 min).

For the molecule `COc1cccc(Nc2ncnc3[nH]cc(C(=O)c4c(F)ccc(NS(=O)(=O)c5ccccc5F)c4F)c23)c1` [P-1149, N-{2,4-Difluoro-3-[4-(3-methoxy-phenylamino)-7H-pyrrolo[2,3-d]pyrimidine-5-carbonyl]-phenyl}-2-fluoro-benzenesulfonamide], the half-maximal inhibitory concentration (IC50) on CYP2C19 was greater than 10 µM; on CYP3A4(BQ), greater than 10 µM; on CYP3A4(BFC) it was greater than 10 µM; at CYP2D6, greater than 10 µM; at CYP2C9, greater than 10 µM; at CYP1A2 (human, 15 min), greater than 10 µM.

The record behind these values is patent publication US9617267B2, “Compounds and methods for kinase modulation, and indications therefor” (Plexxikon Inc., priority 2009, dated 2017).
